Data: patent publication US20230312610A1, “Anti-Microbial Compositions” (5D HEALTH PROTECTION GROUP LTD, priority 2020, published 2023)
In brackets after ≈: the same amount, converted by molar mass.

How the values were obtained:
[1] = Concentration studies: loading of complex in aqueous solution; assay type: physicochemical
Procedure: 3.29 g silver nitrate was dissolved in 4.71 g demineralised water to produce a silver nitrate solution. 2.58 g copper sulphate pentahydrate was dissolved in 16.09 g demineralised water to produce a copper sulphate solution. Silver nitrate solution was added to the DPTA solution with vigorous stirring. […] Copper sulphate solution was added to the white dispersion.
2.39 g silver nitrate was dissolved in 4.61 g demineralised water to produce a silver nitrate solution. 2.08 g zinc sulphate monohydrate was dissolved in 15.92 g demineralised water to produce a zinc sulphate solution. […] Zinc sulphate solution was added to the white dispersion.
0.24 g silver nitrate (AgNO3) was dissolved in 3.26 g demineralised water to produce a silver nitrate solution. 0.66 g aluminium sulphate hexadecahydrate (Al2H32O28S3) was dissolved in 8.34 g demineralised water to produce an aluminium sulphate solution. […] Aluminium sulphate solution was added to the white dispersion.
Silver nitrate solution was formed by dissolving 0.24 g silver nitrate (AgNO3) in 3.26 g demineralised water.

[2] = system: P. aeruginosa (ATCC 15442); test: MIC measurement (adapted CLSI M07-A11 broth dilution); assay type: cell-based; conditions: for MIC: P. aeruginosa (ATCC 15442), MHB, overnight 37° C.
Procedure: (§1) MIC measurements were performed using an adapted method described in the Clinical and Laboratory Standards Institute (CLSI) guidelines M07-A11. Compounds were serial diluted two-fold in Mueller Hinton Broth (MHB) in 96 well plates. A positive growth control and a negative growth control were also included in the well plates.
(§2) A colony suspension of S. aureus (ATCC 29213), P. aeruginosa (ATCC 15442) and C. albican was prepared by taking several colonies from a fresh agar plate and suspending them in MHB. The suspension was adjusted to 0.5 McFarland (~1 × 10^8 CFU/mL) and diluted 1:100. The inoculum was then added to wells at a final concentration of […]. Plates were incubated overnight at 37° C. The following day, MICs were determined as the lowest concentration that no growth could be visually observed.
(§3) An 80 mg/ml solution of T-EDTA was prepared by dissolving T-EDTA (99% pure, Acros Organics) in sterile distilled water. The pH of this solution was measured at 10.5, using a pH electrode. A 16 mg/ml solution of DTPA was prepared by dissolving DTPA (98%+ Acros Organics) in distilled water, and adjusting pH to 10.5 using the addition of sodium hydroxide.

[3] = system: S. aureus (ATCC 29213); test: as above; assay type: cell-based; conditions: for MIC: S. aureus (ATCC 29213), MHB, overnight 37° C.
Procedure: as §1, §2, §3

[4] = system: C. albican (ATCC 10231); test: as above; assay type: cell-based; conditions: MHB, overnight 37° C.
Procedure: as §1, §2

[5] = clear aqueous solution as prepared

**Q.** What does the source list for `O=C([O-])CN(CCN(CC(=O)[O-])CC(=O)[O-])CCN(CC(=O)[O-])CC(=O)[O-].[Ag+].[Ag+].[Al+3]` [Ag2Al(DTPA)]?
**A.** theoretical concentration of the complex in solution [1, 5]: 2.9%; MIC [2]: 450 µg/mL; MIC [3]: 370 µg/mL; MIC [4]: 530 µg/mL

**Q.** What does the source list for `O=C([O-])CN(CCN(CC(=O)[O-])CC(=O)[O-])CCN(CC(=O)[O-])CC(=O)[O-].[Ag+].[Ag+].[Bi+3]` [Ag2Bi(DTPA), Ag2Bi(DPTA)]?
**A.** theoretical concentration of the complex in solution [1, 5]: 0.02 mol/kg; theoretical total solids concentration [1, 5]: 9.7%; MIC [2]: 94 µg/mL; MIC [3]: 190 µg/mL; MIC [4]: 11 µg/mL

**Q.** Which MIC [2] does the source give for `O=C([O-])CN(CCN(CC(=O)[O-])CC(=O)[O-])CC(=O)[O-].[Ag+].[Ag+].[Cu+2]` [Ag2Cu(EDTA), reference compound] here?
**A.** 6 µg/mL

**Q.** And the MIC [3]?
**A.** 98 µg/mL

**Q.** With `O=C(O)CN(CCN(CC(=O)O)CC(=O)O)CCN(CC(=O)O)CC(=O)O` [DTPA, diethylenetriaminepentaacetic acid, reference compound] as the compound, how does the MIC [2] read?
**A.** 2000 µg/mL (≈ 5.08 mM)

**Q.** What about the “increase in potency (MIC) compared to uncomplexed T-EDTA” value ([2]; P. aeruginosa, versus uncomplexed T-EDTA) of the same compound?
**A.** 2.5 fold

**Q.** And the MIC [3]?
**A.** 1000 µg/mL (≈ 2.54 mM)

**Q.** What about the “increase in potency (MIC) compared to uncomplexed T-EDTA” value ([3]; S. aureus, versus uncomplexed T-EDTA) of the same compound?
**A.** 1.25 fold

**Q.** Which results are given for Ag3Cu(DTPA) [Ag3Cu(DPTA)]?
**A.** total soluble solids content of the solution ([1]; clear aqueous solution of the complex as prepared): 22.5 % w/w; MIC [2]: 1.6 µg/mL; increase in potency (MIC) versus prior art compound Ag2Cu(EDTA) ([2]; P. aeruginosa, versus Ag2Cu(EDTA)): approximately 4 fold; MIC [3]: 6 µg/mL; increase in potency (MIC) versus prior art compound Ag2Cu(EDTA) ([3]; S. aureus, versus Ag2Cu(EDTA)): approximately 16 fold
